Results reported in the Kinase Knowledgebase extract (Sharma et al. 2016).

Molecular target: PIK3CB;PIK3CG;PIK3CD;PIK3CA (human) (UniProt P48736)
Test: Enzyme Assay

| Structure (SMILES) | IC50 |
| --- | --- |
| O=C(c1nn(-c2cccc(N3CCOCC3)c2)c2c1CS(=O)(=O)c1ccccc1-2)N1CCOCC1 | 673 nM |
| O=C(c1nn(C2CCN(CCn3ccnc3)C2)c2c1CS(=O)(=O)c1ccccc1-2)N1CCOCC1 (configuration not stated) | 166 nM |
| O=C(c1nn(C2CCCN(CCN3CC(F)(F)C3)C2)c2c1CS(=O)(=O)c1ccccc1-2)N1CCOCC1 (configuration not stated) | 36 nM |
| O=C(c1nn(-c2ccccc2)c2c1CS(=O)(=O)c1ccc(CN3CCOCC3)cc1-2)N1CCOCC1 | 1620 nM |
| O=C(c1nn(-c2ccccc2)c2c1CS(=O)(=O)c1c(-c3ccccc3)cccc1-2)N1CCOCC1 | 17900 nM |
| O=C(c1nn(C2CCCN(CCN3CCOCC3)C2)c2c1CS(=O)(=O)c1c(F)cccc1-2)N1CCOCC1 (configuration not stated) | 16 nM |
| O=C(c1nn(CCO)c2c1CS(=O)(=O)c1ccccc1-2)N1CCOCC1 | 661 nM |
| COCC(=O)N1CCC[C@H](n2nc(C(=O)N3CCOCC3)c3c2-c2ccccc2S(=O)(=O)C3)C1 | 261 nM |
| CC(C)(C)OC(=O)N1CCC(n2nc(C(=O)N3CCOCC3)c3c2-c2ccccc2S(=O)(=O)C3)C1 (configuration not stated) | 1200 nM |
| O=C(c1nn([C@H]2CCCN(CCF)C2)c2c1CS(=O)(=O)c1ccccc1-2)N1CCOCC1 | 200 nM |
| Cc1ccncc1-n1nc(C(=O)N2CCOCC2)c2c1-c1ccccc1S(=O)(=O)C2 | 4040 nM |
| O=C(c1nn([C@H]2CCCN(CCN3CC[C@H](F)C3)C2)c2c1CS(=O)(=O)c1ccccc1-2)N1CCOCC1 | 14 nM |
| O=C(c1nn(C2CCOCC2)c2c1CS(=O)(=O)c1c(F)cccc1-2)N1CCOCC1 | 1030 nM |
| O=C(c1nn(-c2cccc(Nc3ccccc3)c2)c2c1CS(=O)(=O)c1ccccc1-2)N1CCOCC1 | 2700 nM |
| O=C(c1nn(C2CCN(CCN3CCC(F)CC3)C2)c2c1CS(=O)(=O)c1ccccc1-2)N1CCOCC1 (configuration not stated) | 149 nM |
| CC(C)(C)OC(=O)N1CCC(n2nc(C(=O)N3CCOCC3)c3c2-c2ccccc2S(=O)(=O)C3)CC1 | 808 nM |
| COc1ccc2c(c1)S(=O)(=O)Cc1c(C(=O)N3CCOCC3)nn([C@H]3CCCN(CCN4CCC(F)CC4)C3)c1-2 | 19 nM |
| CN(C)c1ccc2c(c1)S(=O)(=O)Cc1c(C(=O)N3CCOCC3)nn(-c3ccccc3)c1-2 | 5020 nM |
| O=C(c1nn(C2CCOC2)c2c1CS(=O)(=O)c1c(F)cccc1-2)N1CCOCC1 (configuration not stated) | 353 nM |
| O=C(c1nn([C@H]2CCCN(CCC3CCOCC3)C2)c2c1CS(=O)(=O)c1ncccc1-2)N1CCOCC1 | 16 nM |
| Cc1ccc(F)cc1-n1nc(C(=O)N2CCOCC2)c2c1-c1ccccc1S(=O)(=O)C2 | 4200 nM |
| CC1CN(CCN2CCC[C@H](n3nc(C(=O)N4CCOCC4)c4c3-c3ccccc3S(=O)(=O)C4)C2)CCO1 (some centres not stated) | 29 nM |

| Structure (SMILES) | IC50 |
| --- | --- |
| O=C(c1nn(C2CCCCC2)c2c1CS(=O)(=O)c1cc(Br)ccc1-2)N1CCOCC1 | 691 nM |
| O=C(c1nn(CC2CCNCC2)c2c1CS(=O)(=O)c1ccccc1-2)N1CCOCC1 | 531 nM |
| Cn1nc(C(=O)N2CCOCC2)c2c1-c1cc([N+](=O)[O-])ccc1S(=O)(=O)C2 | 2770 nM |
| O=C(c1nn([C@H]2CCCN(Cc3cccnc3)C2)c2c1CS(=O)(=O)c1ccccc1-2)N1CCOCC1 | 85 nM |
| COCCN1CCC[C@H](n2nc(C(=O)N3CCOCC3)c3c2-c2cccc(OC)c2S(=O)(=O)C3)C1 | 128 nM |
| O=C(c1nn(-c2ccc(CN3CCC(F)CC3)cc2)c2c1CS(=O)(=O)c1ccccc1-2)N1CCOCC1 | 247 nM |
| CS(=O)(=O)c1ccc(-n2nc(C(=O)N3CCOCC3)c3c2-c2ccccc2S(=O)(=O)C3)cc1 | 4520 nM |
| O=C(c1nn([C@H]2CCCN(CCN3CCOCC3)C2)c2c1CS(=O)(=O)c1c(F)cccc1-2)N1CCOCC1 | 16 nM |
| CN(C)S(=O)(=O)c1cccc(-n2nc(C(=O)N3CCOCC3)c3c2-c2ccccc2S(=O)(=O)C3)c1 | 641 nM |
| O=C(c1nn(-c2ccc(CN3CCC(F)CC3)nc2)c2c1CS(=O)(=O)c1ccccc1-2)N1CCOCC1 | 1200 nM |
| O=C(c1nn(C2CCCCCC2)c2c1CS(=O)(=O)c1ccccc1-2)N1CCOCC1 | 469 nM |
| COCCN1CCC(n2nc(C(=O)N3CCOCC3)c3c2-c2ccccc2S(=O)(=O)C3)C1 (configuration not stated) | 1480 nM |
| O=C(c1nn(C2CCCCC2)c2c1CS(=O)(=O)c1ccsc1-2)N1CCOCC1 | 212 nM |
| O=C(c1nn(C2CCN(CCn3cccn3)C2)c2c1CS(=O)(=O)c1ccccc1-2)N1CCOCC1 (configuration not stated) | 257 nM |
| COC1CCCN(C(=O)c2cccc(-n3nc(C(=O)N4CCOCC4)c4c3-c3ccccc3S(=O)(=O)C4)c2)C1 (configuration not stated) | 246 nM |
| O=C(c1nn(C2CCOCC2)c2c1CS(=O)(=O)c1c(Cl)cccc1-2)N1CCOCC1 | 673 nM |
| O=C(c1nn([C@@H]2CCCN(CCn3ccnc3)C2)c2c1CS(=O)(=O)c1ccccc1-2)N1CCOCC1 | 444 nM |
| CS(=O)(=O)C1CCC(n2nc(C(=O)N3CCOCC3)c3c2-c2ccccc2S(=O)(=O)C3)CC1 (configuration not stated) | 2100 nM |
| O=C(c1nn(C2CCN(CC3CCOC3)C2)c2c1CS(=O)(=O)c1ccccc1-2)N1CCOCC1 (configuration not stated) | 353 nM |
| O=C(c1nn(-c2ccc3nn(Cc4ccccc4)cc3c2)c2c1CS(=O)(=O)c1ccccc1-2)N1CCOCC1 | 2080 nM |
| O=C(c1nn(-c2cccc(CN3CCCC(F)(F)C3)c2)c2c1CS(=O)(=O)c1ccccc1-2)N1CCOCC1 | 1540 nM |
| Nc1ncc(-c2cccc(-n3nc(C(=O)N4CCOCC4)c4c3-c3ccccc3S(=O)(=O)C4)c2)cn1 | 454 nM |

| Structure (SMILES) | IC50 |
| --- | --- |
| CC(C)CCN1CCCC(n2nc(C(=O)N3CCOCC3)c3c2-c2ccccc2S(=O)(=O)C3)C1 (configuration not stated) | 138 nM |
| O=C(c1nn(-c2ccccc2)c2c1CS(=O)(=O)c1ccccc1-2)N1CCOCC1 | 244 nM |
| O=C(c1nn(-c2cccc(CN3CCC(F)(F)CC3)c2)c2c1CS(=O)(=O)c1ccccc1-2)N1CCOCC1 | 560 nM |
| O=C(c1nn(-c2cccc(Cn3cccn3)c2)c2c1CS(=O)(=O)c1ccccc1-2)N1CCOCC1 | 488 nM |
| O=C(c1nn(C2CCCN(CCCn3cccc3)C2)c2c1CS(=O)(=O)c1ccccc1-2)N1CCOCC1 (configuration not stated) | 90 nM |
| Cc1ccccc1-c1cccc(-n2nc(C(=O)N3CCOCC3)c3c2-c2ccccc2S(=O)(=O)C3)c1 | 1080 nM |
| O=C(c1nn(-c2cccc(-c3cnn(CCN4CCOCC4)c3)c2)c2c1CS(=O)(=O)c1ccccc1-2)N1CCOCC1 | 338 nM |
| O=C(c1nn(-c2ccc(N3CCOCC3)cc2)c2c1CS(=O)(=O)c1ccccc1-2)N1CCOCC1 | 3940 nM |
| COc1ccc2c(c1)-c1c(c(C(=O)N3CCOCC3)nn1[C@H]1CCCN(CCN3CCOCC3)C1)CS2(=O)=O | 28 nM |
| COC1CN(Cc2cccc(-n3nc(C(=O)N4CCOCC4)c4c3-c3ccccc3S(=O)(=O)C4)c2)C1 | 277 nM |
| O=C(c1nn(-c2ccccc2)c2c1CS(=O)(=O)c1c(F)cccc1-2)N1CCOCC1 | 424 nM |
| CN(C)Cc1ccc(-n2nc(C(=O)N3CCOCC3)c3c2-c2ccccc2S(=O)(=O)C3)cc1 | 43 nM |
| O=C(c1nn(-c2ccc(CNC3CCOCC3)cc2)c2c1CS(=O)(=O)c1ccccc1-2)N1CCOCC1 | 107 nM |
| COCN1c2c(C(=O)N3CCOCC3)nn(-c3ccccc3)c2-c2ccccc2S1(=O)=O | 11700 nM |
| O=C(c1nn(-c2cccc(OCCn3cccn3)c2)c2c1CS(=O)(=O)c1ccccc1-2)N1CCOCC1 | 445 nM |
| CC1COCCN1CCN1CCC[C@H](n2nc(C(=O)N3CCOCC3)c3c2-c2ccccc2S(=O)(=O)C3)C1 (some centres not stated) | 101 nM |
| N#Cc1cccc(-n2nc(C(=O)N3CCOCC3)c3c2-c2ccccc2S(=O)(=O)C3)c1 | 376 nM |
| O=C(CC1CCCCC1)N1CCC[C@H](n2nc(C(=O)N3CCOCC3)c3c2-c2ccccc2S(=O)(=O)C3)C1 | 735 nM |
| O=C(c1nn(-c2cccc(-c3ccccc3)c2)c2c1CS(=O)(=O)c1ccccc1-2)N1CCOCC1 | 764 nM |
| O=C(c1nn(C2CCCC2)c2c1CS(=O)(=O)c1ccccc1-2)N1CCOCC1 | 205 nM |
| CN(C)CCCn1nc(C(=O)N2CCOCC2)c2c1-c1ccccc1S(=O)(=O)C2 | 3110 nM |
| O=C(c1nn(-c2ccc(CN3CCCCC3)cc2)c2c1CS(=O)(=O)c1ccccc1-2)N1CCOCC1 | 110 nM |

| Structure (SMILES) | IC50 |
| --- | --- |
| O=C(c1nn([C@H]2CCN(C3CCOCC3)C2)c2c1CS(=O)(=O)c1ccccc1-2)N1CCOCC1 | 1440 nM |
| COc1cccc(Cn2nc(C(=O)N3CCOCC3)c3c2-c2ccccc2S(=O)(=O)C3)c1 | 1170 nM |
| COc1ccc(-n2nc(C(=O)N3CCOCC3)c3c2-c2ccccc2S(=O)(=O)C3)cc1 | 749 nM |
| O=C(c1nn(-c2ccc(CN3CCOCC3)nc2)c2c1CS(=O)(=O)c1ccccc1-2)N1CCOCC1 | 614 nM |
| O=C(c1nn(-c2ccc(F)cc2)c2c1CS(=O)(=O)c1ccccc1-2)N1CCOCC1 | 373 nM |
| O=C(c1nn([C@H]2CCCN(C3CCOCC3)CC2)c2c1CS(=O)(=O)c1ccccc1-2)N1CCOCC1 | 340 nM |
| O=C(c1nn(C2CCN(CCN3CCOCC3)CC2)c2c1CS(=O)(=O)c1ccccc1-2)N1CCOCC1 | 369 nM |
| NC(=O)c1cccc2c1S(=O)(=O)Cc1c(C(=O)N3CCOCC3)nn(-c3ccccc3)c1-2 | 7900 nM |
| COC1CN(CCN2CCC[C@H](n3nc(C(=O)N4CCOCC4)c4c3-c3ccccc3S(=O)(=O)C4)C2)C1 | 20 nM |
| COC1CCN(C(=O)c2cccc(-n3nc(C(=O)N4CCOCC4)c4c3-c3ccccc3S(=O)(=O)C4)c2)CC1 | 302 nM |
| O=C(CC1CCCCC1)N1CCC(n2nc(C(=O)N3CCOCC3)c3c2-c2ccccc2S(=O)(=O)C3)C1 (configuration not stated) | 711 nM |
| COc1cccc2c1S(=O)(=O)Cc1c(C(=O)N3CCOCC3)nn(C)c1-2 | 1730 nM |
| O=C(c1nn(C2CCN(CCN3CCOCC3)C2)c2c1CS(=O)(=O)c1ccccc1-2)N1CCOCC1 (configuration not stated) | 192 nM |
| O=C(c1nn(C2CCCN(CC3CCOCC3)C2)c2c1CS(=O)(=O)c1ccccc1-2)N1CCOCC1 (configuration not stated) | 11 nM |
| COc1cccc2c1S(=O)(=O)Cc1c(C(=O)N3CCOCC3)nn(-c3ccccc3)c1-2 | 459 nM |
| CN1CCCC(Cn2nc(C(=O)N3CCOCC3)c3c2-c2ccccc2S(=O)(=O)C3)C1 (configuration not stated) | 6050 nM |
| CC(=O)OCCN1CCC(n2nc(C(=O)N3CCOCC3)c3c2-c2ccccc2S(=O)(=O)C3)C1 (configuration not stated) | 871 nM |
| O=C(c1nn(-c2cccc(-c3ccncc3)c2)c2c1CS(=O)(=O)c1ccccc1-2)N1CCOCC1 | 193 nM |
| O=C(c1nn(C2CCCN(CC3CCOC3)C2)c2c1CS(=O)(=O)c1ccccc1-2)N1CCOCC1 (configuration not stated) | 98 nM |
| NC(=O)c1cccc(-n2nc(C(=O)N3CCOCC3)c3c2-c2ccccc2S(=O)(=O)C3)c1 | 957 nM |
| COCc1cccc(-n2nc(C(=O)N3CCOCC3)c3c2-c2ccccc2S(=O)(=O)C3)c1 | 997 nM |
